In one assay the test system is KMS11-Luc. The assay is described as follows: CellTiter-Glo, hematologic malignancy panel. The assay is classed as cell-based, human. To be noted: MM; for GI50: Homo sapiens. The text has this:
(§1) Identification of tumor types that are the most sensitive to the KSP inhibitors of the present invention can be accomplished using an unbiased approach that uses several cell-based assays. The assays chosen were as follows: • CellTiter-Glo®. This is an assay designed to measure ATP concentration in a cell culture, and can be correlated to cell number. Briefly CellTiter-Glo® (Promega Corporation) is a homogeneous method using the single CellTiter-Glo® reagent to detect ATP wherein ATP in the assay drives the activity of a thermostable luciferase to create a luminescent signal which can then be measured and correlated with the number of viable cells. Briefly, for adherent cells, 1,000 to 5,000 cells/well were plated in 96-well plates (100 μl/well) and let to adhere for 24 hours before being treated with drug. For non-adherent cells, 1,000 to 10,000 cells/well were plated in 96-well plates (100 μl/well) and immediately treated with drug. Drug dilutions were prepared in DMSO at 1000 times the final concentration. These dilutions were then diluted 1/100 in growth media before being added to the cells (11 μl/well) to achieve the desired final concentration. After 48 h in a 37° C. tissue culture incubator, the plates were processed for the CellTiter-Glo®assay according to the manufacturer's instructions. Protocol for a 72 hour cell proliferation assay: The 72 hour assay was performed the same way as the 48 hour assay except for the following modifications: For adherent cells, 500 to 5,000 cells/well were plated in 96-well plates (90 μl/well cell growth media) and left to adhere for 24 hours before being treated with drug. For non-adherent cells, 1,000 to 10,000 cells/well were plated in 96-well plates (90 μl/well cell growth media) and immediately treated with drug. Data values presented represent the concentration of test compound required for a 50% reduction in growth. • LDH release. The Cytotoxicity Detection KitPLUS (LDH) assay (Roche Diagnostics, Manheim, Germany) measures the amount of LDH released in the media by dying cells; LDH catalyzes the conversion of lactate into pyruvate. The enzymatic reaction is coupled to a chemical reaction that uses a tetrazolium salt to form a formazan that is red and can be detected by its absorbance at 490 nm. This assay measures the amount of cell death after drug treatment. Cells were plated at 10,000 cells/well in 96-well plates (100 μl/well). Adherent cells were let to adhere for 24 hours before being treated with drug, whereas non-adherent cells were immediately treated with drug. Drug dilutions were prepared in DMSO at 1000 times the final concentration. These dilutions were then diluted 1/100 in growth media before being added to the cells (11 μl/well) to achieve the desired final concentration. After 48 h in a 37° C. tissue culture incubator, the plates were processed for the Cytotoxicity Detection KitPLUS (LDH) assay according to the manufacturer's instructions. The media only values were subtracted from all the data points before analysis. Data values presented correspond to the compound concentration wherein LDH output is at half maximal level. • Caspase-Glo® 3/7. The Caspase-Glo® 3/7 Assay (Promega Corporation) is a homogeneous luminescent assay that measures caspase-3/7 activities. The assay provides a proluminescent caspase-3/7 DEVD-aminoluciferin substrate and a thermostable luciferase in a reagent optimized for caspase-3/7 activity, luciferase activity and cell lysis. Adding the single Caspase-Glo® 3/7 Reagent results in cell lysis, followed by caspase cleavage of the substrate. This liberates free aminoluciferin, which is consumed by the luciferase, generating a luminescent signal. The signal is proportional to caspase-3/7 activity. Data values presented correspond to the compound concentration wherein caspase 3/7 activity is at half maximal level. […]
A general note: ATP-based viability assays read luminescence as a measure of living cells.

A further assay has as its system MV4; 11Luc. The assay is described as follows: CellTiter-Glo, hematologic malignancy panel. The class given is cell-based, human. To be noted: AML; for GI50: Homo sapiens.
Source text: as §1

For assay [1], the system named is RL. The experiment in a line: CellTiter-Glo, hematologic malignancy panel. The class given is cell-based, human. To be noted: NHL; for GI50: Homo sapiens.
Source text: as §1

Another assay has as its system MV4; 11. The assay is described as follows: CellTiter-Glo, hematologic malignancy panel. The class given is cell-based, human. To be noted: AML; for GI50: Homo sapiens.
Source text: as §1

Assay [2] concerns cell lines derived from hematological malignancies. The experiment in a line: CellTiter-Glo, hematologic malignancy panel, mean of panel. The assay is classed as cell-based. From the text: Identification of tumor types that are the most sensitive to the KSP inhibitors of the present invention can be accomplished using an unbiased approach that uses several cell-based assays. The assays chosen were as follows: • CellTiter-Glo®. This is an assay designed to measure ATP concentration in a cell culture, and can be correlated to cell number. Briefly CellTiter-Glo® (Promega Corporation) is a homogeneous method using the single CellTiter-Glo® reagent to detect ATP wherein ATP in the assay drives the activity of a thermostable luciferase to create a luminescent signal which can then be measured and correlated with the number of viable cells. Briefly, for adherent cells, 1,000 to 5,000 cells/well were plated in 96-well plates (100 μl/well) and let to adhere for 24 hours before being treated with drug. For non-adherent cells, 1,000 to 10,000 cells/well were plated in 96-well plates (100 μl/well) and immediately treated with drug. Drug dilutions were prepared in DMSO at 1000 times the final concentration. These dilutions were then diluted 1/100 in growth media before being added to the cells (11 μl/well) to achieve the desired final concentration. […] The enzymatic reaction is coupled to a chemical reaction that uses a tetrazolium salt to form a formazan that is red and can be detected by its absorbance at 490 nm. […]

For assay [3], the system named is RL. The experiment in a line: Cell cycle profile by FACS (propidium iodide DNA content). The class given is cell-based, human. Conditions: 24 and 48 hr. Here is the method:
Lymphoma cell line cells were treated with the KSP inhibitors of the invention and analyzed by FACs analysis. Approximately 2×10^5 cells were harvested, cell pellets were washed with cold PBS twice and re-suspended in 500 μL cold PBS. Cells were fixed by adding 8 mL cold 80% ethanol while vortexing slowly. After 15 minutes of incubation fixed cells were washed twice with PBS and cell pellets were re-suspended in 1 mL of PI/RNASE staining buffer (BD Pharmingen™ catalog #550825) and incubated for 15 minutes at 37° C. protected from light. Propidium iodide (PI) is a fluorescent vital dye that stains both DNA and RNA. Therefore the RNA must be removed by digestion with ribonuclease (RNase). Stained cells were passed through a cell strainer into a FACS tube to reduce the number of cell aggregates (BD Falcon #352235) prior to FACS analysis. The DNA content of the fixed and stained cells was analyzed by the BD FACSCalibur flow cytometer using the CellQuest software.
Following mitotic arrest, cells have several options including coming out of arrest and dividing normally, undergoing apoptosis directly, or exiting mitosis without cytokinesis (a phenomenon called mitotic slippage). If cells undergo mitotic slippage, they can enter a pseudo-G1 and then either continue to cycle, senesce, or undergo apoptosis. […]

The mark [4] stands for this setting: GI50 in nM, read-out: Log(GI50) (converted).

Read-outs that look alike come from different tables or passages of the source.

As a reminder, the GI50 is the concentration that inhibits growth by half. For the compound `CC(C)(C)[C@H](c1nc(-c2cc(F)ccc2F)cn1Cc1ccccc1)N(CC[C@H](N)CF)C(=O)CO` [Compound IIa], the GI50 was 0.29 nM in the assay with KMS11-Luc (setting [4]); 0.29 nM in the assay with KMS11-Luc (read-out: GI50); 0.105 nM with MV4; 11Luc (setting [4]); 0.11 nM in the assay on MV4; 11Luc (read-out: GI50); 20 nM with RL [1] (setting [4]); 20 nM in the assay on RL [1] (read-out: GI50). Further, the GI50 with MV4; 11 (setting [4]) was 0.0769 nM; with MV4; 11 (read-out: GI50) it was 0.08 nM; in assay [2] (GI50 in nM, read-out: Log(GI50), arithmetic mean of panel (converted)) it was 0.339 nM; in assay [2] (read-out: GI50, geometric mean of panel) it was 0.34 nM. Besides, the “Differential vs mean Log(GI50)” value is 0.068 in the assay on KMS11-Luc, 0.509 with MV4; 11Luc, −1.771 in the assay with RL [1] and 0.644 in the assay with MV4; 11. The “cell cycle profile (DNA content, FACS)” value in the assay with RL [3] is given as “remained arrested in mitosis”.

For the origin of these results see patent publication US8252832B2, “Kinesin inhibitors as cancer therapeutics” (Novartis AG, priority 2007, dated 2012).
